{"source": "paper PMC6934184", "about": "“Selective DNA-PKcs inhibition extends the therapeutic index of localized radiotherapy and chemotherapy” (The Journal of Clinical Investigation, 2019)", "molecular_target": "T1, MKNK1 (MNK1) (Homo sapiens, UniProt Q9BUB5)", "T1 construct": "purchased Thermo Fisher Scientific (Life Technologies) SelectScreen", "T1 sequence (Q9BUB5 whole entry)": "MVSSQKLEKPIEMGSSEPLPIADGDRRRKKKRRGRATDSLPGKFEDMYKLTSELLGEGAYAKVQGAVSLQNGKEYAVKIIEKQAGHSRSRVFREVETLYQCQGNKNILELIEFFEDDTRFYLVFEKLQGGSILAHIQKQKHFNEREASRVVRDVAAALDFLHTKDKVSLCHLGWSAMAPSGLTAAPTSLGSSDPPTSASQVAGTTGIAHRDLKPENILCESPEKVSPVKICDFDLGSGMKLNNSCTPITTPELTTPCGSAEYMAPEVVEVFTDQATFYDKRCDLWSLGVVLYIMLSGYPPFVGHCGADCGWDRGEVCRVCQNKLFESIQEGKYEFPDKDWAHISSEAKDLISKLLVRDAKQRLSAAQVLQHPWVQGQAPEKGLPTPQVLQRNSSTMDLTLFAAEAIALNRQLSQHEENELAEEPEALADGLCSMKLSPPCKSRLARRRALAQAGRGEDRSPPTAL", "test": "SelectScreen Z'LYTE", "assay_type": "biochemical", "method_in_brief": "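Percent values come from Thermo SelectScreen profiling of NU5455, combining activity and binding assays. CSF1R was run in Z'LYTE format at Km app ATP, and CAMK1 in Adapta format with ATP listed at 10.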", "data": [{"molecule": "CN(C(=O)CN1CCOCC1)c1ccc2sc3c(-c4cccc5c(=O)cc(N6CC7CCC(C6)O7)oc45)cccc3c2c1", "note": "[NU5455]", "values": [{"measurement": "inhibition at 1 µM", "result": -10.7, "unit": "%"}]}]}
